Assay results as given in patent US8143241B2, “DNA damage repair inhibitors for treatment of cancer” (Kudos Pharmaceuticals Limited, priority 2003, dated 2012).

How the values were obtained:
[1] = system: pSUPER-CFP-CONTROL transfected HeLa cells; test: Clonogenic survival, control transfected HeLa cells; assay type: cell-based, human; settings: constant exposure 12-14 days, read-out: SF50 (the source's name)
Source text: (§1) Clonogenic survival curves of transfected HeLa cells under constant exposure to a range of concentrations of PARP inhibitor (KU0058684) for 12-14 days. […] SF50 for pSUPER-CFP-CONTROL transfected cells is >1×10^−5 M and is 1×10^−6 M for pSUPER-CFP-17/19/23 transfected cells.
(§2) HeLa cells were transfected using FuGene (Roche, USA) according to the manufacturers instructions. For clonogenic survival assays, cells were co-transfected in 6 well plates with pSUPER and a vector expressing blasticidin resistance (pEF-Bsd, Invitrogen, USA) at a ratio of 10:1 (pSUPER: pEF-Bsd). Twenty-four hours after transfection, cells were plated into replica plates and this was followed by treatment with PARP inhibitors and blasticidin 48 hours post transfection.

[2] = system: RAD51 siRNA transfected HeLa cells; test: Clonogenic survival, HeLa cells with RAD51 RNAi silencing; assay type: cell-based, human; settings: pSUPER-CFP-17/19/23 transfected HeLa cells, constant exposure 12-14 days; read-out: SF50 (the source's name)
Source text: as §1, §2

[3] = system: Brca1 and Brca2 deficient cells; test: Mitotic chromosome analysis; assay type: cell-based, mouse; settings: 24 hours treatment
Method: ES cells were seeded onto gelatin, treated for 24 hours with chemical inhibitors, followed by colcemid treatment for 1 hour. Cells were harvested, fixed, dropped onto slides, dried and stained with DAPI before chromosome analysis under a microscope.

[4] = system: Brca1 and Brca2 wild type and mutant ES cells; test: FACS analysis of cell cycle arrest (DNA content, phospho-histone H3); assay type: cell-based, mouse
Method: For DNA content measurement, cells were fixed in 70% ethanol, incubated with Rnase A and propidium iodide (PI) and analysed with a FACSCalibur (Becton Dickinson). For phospho-Histone H3 analysis, cells were fixed in 70% ethanol, permeabilised with 0.25% triton X-100, incubated with anti-phospho-histone H3 antibody (Upstate Biotechnology) for 3 hours, and then with FITC-anti rabbit IgG (Serotec) for 30 minutes.
Cells were exposed with KU0058684 for various periods then labelled with BrdU and the proportion of cells in each phase of the cell cycle. […] To further characterise this arrest, cells were analysed for both DNA content and for phosphorylated Histone H3, an M phase marker. […]

[5] = system: chinese hamster ovary cells deficient in Brca2 (V-C8); test: Clonogenic assay, Brca2 deficient chinese hamster ovary cells (V-C8) vs Brca2-complemented derivative; assay type: cell-based; settings: Brca2 deficient CHO cells vs complemented derivative
Source text: VC8 cells and the mouse Brca2 BAC complemented derivatives were as described in M. Kraakman-van der Zwet et al., Mol Cell Biol 22, 669-79 (2002)). ES cells defective in Brca2 function have been described previously (Tutt et al. (2002) EMBO Rep 3, 255-60). The construction of ES cells defective in Brca1 will be described elsewhere but have previously been validated (Foray et al. (2003) Embo J 22 2860-71). HBL100 cells were transfected with a pSUPER BRCA1 RNAi plasmid and selected with geneticin for 3 weeks. Clones were selected on the basis of their BRCA1 expression, as analysed by Northern blot.
(§3) For measurement of sensitivity to chemical inhibitors, cell cultures e.g. ES cells or mouse embryonic fibroblasts, in exponential growth were trypsinised and seeded at various densities in 6-well plates onto confluent monolayer of Mitomycin C (MMC) inactivated mouse embryonic fibroblasts and, where appropriate, treated with inhibitors after 18 h. For continuous exposure, cells were re-fed every 4 days with fresh medium and inhibitor. For timed exposures, inhibitor was added for the specified period then cells were washed and re-fed with fresh medium. After 10-14 days, cells were washed with PBS, fixed in methanol and stained with crystal violet. Colonies containing greater than approximately 50 cells were counted. Experiments were performed at least three times in triplicate.

[6] = system: Fancd2−/−, Fanca−/−, Fancc−/− and Fanca−/−c−/− fibroblasts; test: Clonogenic survival, Fanconi anaemia mouse fibroblasts; assay type: cell-based; settings: continuous exposure 12-14 days
Method: Mouse fibroblasts from wild-type, Fancd2^−/−, Fanca^−/−, Fancc^−/− and Fanca^−/−c^−/− animals were obtained from the Fanconi Anaemia Cell Repository, Oregon Health and Science University. These cells were maintained in DMEM, supplemented with FCS (10% v/v), glutamine and antibiotics. RAD54 and RAD52 Embryonic Stem (ES) cells were grown in DMEM, supplemented with FCS (15% v/v), glutamine, antibiotics, non-essential amino acids, 2-mercaptoethanol and Leukemia inhibitory Factor. HeLa cells (CCL-2) were obtained from ATCC (USA) and were maintained in DMEM, supplemented with FCS (10% v/v), glutamine and antibiotics.
as §3

PARP-1 = PARP-1 (Homo sapiens, UniProt P09874); test: PARP-1 enzyme activity inhibition; assay type: biochemical; settings: read-out: IC50 against PARP-1 enzyme activity
Chain of PARP-1 (P09874 whole entry): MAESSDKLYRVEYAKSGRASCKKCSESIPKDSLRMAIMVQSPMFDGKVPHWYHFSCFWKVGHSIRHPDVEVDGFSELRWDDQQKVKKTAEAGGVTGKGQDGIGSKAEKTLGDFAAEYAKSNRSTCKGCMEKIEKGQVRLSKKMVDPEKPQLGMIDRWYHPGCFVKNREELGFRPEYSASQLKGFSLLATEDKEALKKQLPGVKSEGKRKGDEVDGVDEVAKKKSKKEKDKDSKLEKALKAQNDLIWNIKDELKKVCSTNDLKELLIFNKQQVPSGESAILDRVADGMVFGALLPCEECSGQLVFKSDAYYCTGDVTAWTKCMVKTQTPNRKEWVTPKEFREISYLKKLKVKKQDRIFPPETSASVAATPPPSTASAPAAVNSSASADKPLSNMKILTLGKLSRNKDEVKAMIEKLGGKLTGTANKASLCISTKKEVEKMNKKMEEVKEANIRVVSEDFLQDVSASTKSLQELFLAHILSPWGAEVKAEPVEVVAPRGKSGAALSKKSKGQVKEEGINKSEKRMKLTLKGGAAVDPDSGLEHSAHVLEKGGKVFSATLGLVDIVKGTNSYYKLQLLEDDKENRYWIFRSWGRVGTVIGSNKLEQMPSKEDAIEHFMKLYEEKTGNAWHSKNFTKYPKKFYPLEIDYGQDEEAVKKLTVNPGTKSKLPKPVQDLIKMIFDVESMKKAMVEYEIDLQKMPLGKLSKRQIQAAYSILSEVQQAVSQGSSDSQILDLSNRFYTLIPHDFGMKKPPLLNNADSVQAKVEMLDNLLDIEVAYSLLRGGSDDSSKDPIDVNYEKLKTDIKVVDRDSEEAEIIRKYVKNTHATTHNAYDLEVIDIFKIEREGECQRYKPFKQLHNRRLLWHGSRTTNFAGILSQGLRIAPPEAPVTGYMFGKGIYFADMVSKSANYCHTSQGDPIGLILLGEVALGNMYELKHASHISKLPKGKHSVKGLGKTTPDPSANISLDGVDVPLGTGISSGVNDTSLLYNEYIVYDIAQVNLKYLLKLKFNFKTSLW
Method: Chemical inhibitors were dissolved in DMSO at 10 mM and stored at −20° C. in the dark.

[7] = system: Brca2 deficient VC8 cells; test: Neutral comet assay, Brca2 deficient VC8 cells; assay type: cell-based, chinese hamster; settings: 30-hour exposure to 1 μM
Method: (§4) VC8 and VC8-BAC cells were plated 24 hours prior to treatment with 1 μM KU0058684 for 30 hours. All further work was carried out in the dark. Cells were washed with and scraped into PBS prior to Comet analysis as described (Lemay and Wood, 1999). Cells suspended in LMP agarose (0.5% in PBS) were spread onto Comet slides (Trevigen, Gaithersburg) and placed at 4 C until set, prior to lysis for 45 mins in 2.5M NaCl, 100 mM EDTA, 10 mM Tris Base, 1% sodium lauryl sarcosinate, 0.01% Triton X-100. Slides were transferred to TBE for 5 mins prior to electrophoresis at 18V for 15 mins. Slides were then fixed in 100% ethanol for 5 mins and air dried before the addition of SYBR green dye and visualisation by epifluorescence using fluorescien filters (Nikon). Comets were analysed using the Comet software module of the Lucia G imaging package as supplied by Nikon. 50 comets per data point were examined for each of three independent experiments and the mean tail moment calculated.

VC8-BAC cells = test: Neutral comet assay, complemented VC8-BAC line; assay type: cell-based, chinese hamster; settings: 30-hour exposure to 1 μM
Method: as §4

[8] = system: Brca2 deficient ES cell derived tumours; test: ES cell xenografts (teratomas) in athymic BALB/c nude mice; assay type: in vivo, mouse; settings: 15 mg/kg intraperitoneal, two doses per day
Method: ES cell derived tumours (teratomas) were produced by subcutaneous injection of […] ES cells into 6-8 week athymic BALB/c nude (nu/nu) mice. Twenty mice were injected with Brca2 deficient ES cells and an identical cohort with isogenic wild type cells. Two days after cell injection, treatment with KU0058684 or vehicle was initiated. For three consecutive days, two Intraperitoneal doses of KU0058684 (or vehicle) were administered, six hour apart, each at a dosage of 15 mg/kg animal. This treatment was then stopped for five days and then reinitiated (as before) for another three consecutive days. Growth of tumours was monitored from a minimum volume of 0.3 cm^3. The data in FIG. 16 represents two separate experiments involving in total 40 animals.

With `O=C1CCC(=O)N1c1cc(Cc2n[nH]c(=O)c3ccccc23)ccc1F` [KU0058684] the IC50 [1] was > 10000 nM, the IC50 [2] was 1000 nM and the mitotic chromosome aberrations [3] was “frequent major aberrations”. For the same molecule, the “cell cycle arrest (DNA content, FACS)” value [4] was “profound arrest of cells with a tetraploid DNA content”, the “phase of arrest (phospho-histone H3 labelling)” value [4] was “majority of cells were arrested in G2” and the “enhanced sensitivity compared to a Brca2-complemented derivative” value [5] was “greater than 1000 fold”. For the same molecule, the “sensitivity of FA gene deficient fibroblasts compared to wild-type cells” value [6] was “results in sensitivity”, the IC50 (PARP-1) was 3.2 nM and the “increase in the tail moment” value [7] was 4.7 fold. For the same molecule, the “increase in tail moment” value (VC8-BAC cells) was “no significant increase” and the “growth of Brca2 deficient tumours relative to wild-type tumours” value [8] was “dramatically reduce the growth”.
